Source: ChEMBL document CHEMBL1201862, “PubChem BioAssay data set” (2004)
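1) Cells in 96-well plates. 2) Compound, 48 h, 5 concentrations. 3) Linear interpolation between surrounding doses. 4) Unreached endpoint = highest concentration. GI50 = concentration required for 50% inhibition of growth.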 The source made the active and inactive calls. No stated cut-off is given here; in the data, active = GI50 up to about 1.1 µM and inactive = higher.

How the values were obtained:
Assay in all cases: NCI tumour cell line growth inhibition, 48 h
[1] = tested on: HOP-18
[2] = tested on: DMS-273
[3] = tested on: XF498
[4] = tested on: DMS-114
[5] = tested on: DLD-1
[6] = tested on: RXF 631
[7] = tested on: MCF7
[8] = tested on: MDA-MB-435
[9] = tested on: MDA-MB-231

Measured: GI50

CC(=O)O/C=C(/C=C/OC(C)=O)C(C/C=C(\C)C#CC=C(C)C)OC(C)=O (configuration not stated)
inactive: [1] 33.3 µM | [2] 50.8 µM | [3] 37.2 µM | [4] 19 µM | [5] 45.8 µM | [6] > 100 µM

O=C(NCCCOC(=O)CCCCCCCCC(=O)OCCCNC(=O)NC(=O)c1c[nH]c(=O)[nH]c1=O)NC(=O)c1c[nH]c(=O)[nH]c1=O
inactive: [1] 1.49 µM | [2] > 100 µM | [3] > 100 µM | [5] > 100 µM | [6] > 100 µM

Brc1nc2c3ccccc3ncn2c1Br
inactive: [1] 14.4 µM | [2] 30.8 µM | [3] 25.8 µM | [4] 33.4 µM | [5] 43.6 µM | [6] 39.4 µM

CC1=C(C(=O)Nc2ccc(Cl)c(Cl)c2)C(c2ccc([N+](=O)[O-])cc2)C(C(=O)Nc2ccc(Cl)c(Cl)c2)=C(C)N1
inactive: [1] 3.6 µM | [2] 2.91 µM | [3] 1.44 µM | [4] 2.88 µM | [5] 3.41 µM | [6] 2.04 µM

CCOC(=O)C(=C=C=C(c1ccccc1)c1ccccc1)C(=O)OCC
inactive: [2] 20.3 µM | [3] 15.1 µM | [4] 18.5 µM | [5] 18.5 µM | [6] 24 µM

COc1ccc2c(c1)CCCN2CCCCCCCCCCN(CCC(C)C)CCC(C)C
inactive: [1] 12.1 µM | [2] 10.1 µM | [3] 7.89 µM | [4] 4.97 µM | [5] 10.5 µM | [6] 8.87 µM

C/C(=N/NC(=O)CC(=O)N(C(=O)c1ccccc1Cl)c1ccc(C)cc1)c1cc2ccccc2oc1=O
inactive: [1] > 100 µM | [2] > 100 µM | [3] > 100 µM | [4] 49.8 µM | [5] > 100 µM | [6] > 100 µM

COC(=O)NNc1c([N+](=O)[O-])cnn(-c2ccccc2)c1=O
inactive: [7] 3.99 µM | [1] 2.82 µM | [8] 1.66 µM | [2] 1.98 µM | [4] 3.37 µM | [5] 2.06 µM | [6] 2.08 µM

COc1ccccc1CC(C)N (configuration not stated)
inactive: [1] > 100 µM | [2] > 100 µM | [3] > 100 µM | [4] > 100 µM | [5] > 100 µM | [6] > 100 µM

Cc1cccc(C)c1NC(=O)CCc1nnc2s/c(=C\c3ccc(N(C)C)cc3)c(=O)n12
inactive: [2] > 100 µM | [3] > 100 µM | [4] 50.6 µM | [5] > 100 µM | [6] > 100 µM

Cc1c(N(C)C)ccc2c(=O)c3cccc(CC(=O)O)c3oc12
inactive: [7] > 100 µM | [1] > 100 µM | [8] > 100 µM | [2] > 100 µM | [4] > 100 µM | [5] > 100 µM | [6] > 100 µM | [9] > 100 µM

CCOC(=O)C1Nc2ccc([N+](=O)[O-])cc2[C@H]2OCC[C@@H]12 (some centres not stated)
inactive: [1] > 100 µM | [2] > 100 µM | [3] > 100 µM | [4] > 100 µM | [5] > 100 µM | [6] > 100 µM
